Laboratory results taken from patent US10669274B2, “Azaphenalene-3-one derivative, preparation method therefor, and application therof” (SUZHOU KANGRUN PHARMACEUTICALS INC., priority 2017, dated 2020).

Molecular target: T1, PARP1 (Homo sapiens, UniProt P09874)
T1 construct: purchased Trevigen
Test: Determination of PARP1 inhibitory activity (Universal PARP colorimetric assay kit, Trevigen)
Type: biochemical
Conditions: for IC50: PARP1, OD at 450 nm, Logit method; for Inhibition (%): footnote: inhibition rate below 500 nM unless indicating otherwise
Procedure: Determination of PARP1 inhibitory activity
Method for determining PARP1 inhibitory activity:
(1) adding 50 μL of 1X PARP Buffer to each well, incubating for 30 min at room temperature, and drying;
(3) adding 25 μL of 1X PARP1 cocktail to each well and incubating for 60 min at room temperature;

T1 sequence (P09874 whole entry): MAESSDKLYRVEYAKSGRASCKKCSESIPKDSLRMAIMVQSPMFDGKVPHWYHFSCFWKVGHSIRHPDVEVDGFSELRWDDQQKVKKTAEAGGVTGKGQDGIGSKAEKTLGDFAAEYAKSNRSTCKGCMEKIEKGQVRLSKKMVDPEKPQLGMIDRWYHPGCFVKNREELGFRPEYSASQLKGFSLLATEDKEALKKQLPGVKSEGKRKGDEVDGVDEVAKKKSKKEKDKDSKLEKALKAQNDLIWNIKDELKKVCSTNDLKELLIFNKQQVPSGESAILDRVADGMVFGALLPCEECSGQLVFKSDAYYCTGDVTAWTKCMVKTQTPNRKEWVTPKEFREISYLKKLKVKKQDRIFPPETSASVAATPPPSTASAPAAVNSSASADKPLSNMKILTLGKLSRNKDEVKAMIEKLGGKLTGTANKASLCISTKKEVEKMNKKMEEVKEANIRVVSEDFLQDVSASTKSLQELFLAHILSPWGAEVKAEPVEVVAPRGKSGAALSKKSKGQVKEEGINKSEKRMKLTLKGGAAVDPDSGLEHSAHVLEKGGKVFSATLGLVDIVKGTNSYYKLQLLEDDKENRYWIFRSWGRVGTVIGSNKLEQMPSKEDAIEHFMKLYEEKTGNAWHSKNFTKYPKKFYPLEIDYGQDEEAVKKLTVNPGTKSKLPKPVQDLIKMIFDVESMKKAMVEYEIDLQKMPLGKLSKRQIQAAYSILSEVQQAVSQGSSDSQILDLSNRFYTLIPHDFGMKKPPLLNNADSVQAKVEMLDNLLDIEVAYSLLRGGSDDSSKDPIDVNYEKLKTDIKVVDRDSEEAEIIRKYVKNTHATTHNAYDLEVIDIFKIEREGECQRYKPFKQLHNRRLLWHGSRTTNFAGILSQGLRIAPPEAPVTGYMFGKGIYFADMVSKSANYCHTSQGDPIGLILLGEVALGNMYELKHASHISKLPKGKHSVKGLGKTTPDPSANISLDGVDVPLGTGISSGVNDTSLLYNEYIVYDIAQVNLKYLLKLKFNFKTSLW

| Compound | inhibition at 1 µM (PARP1 enzyme inhibition rate, 1 μM) | inhibition at 10 µM (PARP1 enzyme inhibition rate, 10 μM) | IC50 | Inhibition (%) (PARP1 enzyme inhibition rate) |
| --- | --- | --- | --- | --- |
| NC(=O)c1ccc(I)c([N+](=O)[O-])c1 [BSI-201, reference compound] | 23.6% | – | – | – |
| NC(=O)c1cccc(N)c1 [Compound 3-AB, reference compound] | – | 16.9% | – | – |
| CC1=CN2C(=Nc3cccc4c(=O)[nH]nc2c34)C=C1 [Compound 9] | – | – | 81.9 nM | 87.58% |
| O=c1[nH]nc2c3c(cccc13)N=C1C=CC(CNCC(F)(F)F)=CN12 [Compound A2] | – | – | 346 nM | 76.29% |
| CCN(CC)CC1=CN2C(=Nc3cccc4c(=O)[nH]nc2c34)C=C1 [Compound A3] | – | – | 137 nM | 84.77% |
| O=c1[nH]nc2c3c(cccc13)N=C1C=CC(CN3CCCC3)=CN12 [Compound A4] | – | – | 103 nM | 84.77% |
| O=c1[nH]nc2c3c(cccc13)N=C1C=CC(Cn3ccnc3)=CN12 [Compound A5] | – | – | 164 nM | 95.72% |
| O=c1[nH]nc2c3c(cccc13)N=C1C=CC(CN3CCCCC3)=CN12 [Compound A6] | – | – | 294 nM | 91.67% |
| O=c1[nH]nc2c3c(cccc13)N=C1C=CC(CN3CCOCC3)=CN12 [Compound A7] | – | – | 194 nM | 73.37% |
| CNC1CCN(CC2=CN3C(=Nc4cccc5c(=O)[nH]nc3c45)C=C2)CC1 [Compound A8] | – | – | – | 79.97% |
| CN(C)C1CCN(CC2=CN3C(=Nc4cccc5c(=O)[nH]nc3c45)C=C2)CC1 [Compound A9] | – | – | – | 82.15% |
| CN1CCC(N(C)CC2=CN3C(=Nc4cccc5c(=O)[nH]nc3c45)C=C2)CC1 [Compound A10] | – | – | 119 nM | 88.97% |
| CN(CC1=CN2C(=Nc3cccc4c(=O)[nH]nc2c34)C=C1)C1CCN(c2ccccc2)CC1 [Compound A11] | – | – | 160 nM | 92.42% |
| CN(CC1=CN2C(=Nc3cccc4c(=O)[nH]nc2c34)C=C1)C1CCN(Cc2ccccc2)CC1 [Compound A12] | – | – | – | 89.42% |
| O=c1[nH]nc2c3c(cccc13)N=C1C=CC(CN3CCc4ccc(F)cc4C3)=CN12 [Compound A13] | – | – | – | 79.67% |
